Test results from ChEMBL document CHEMBL1201862, “PubChem BioAssay data set” (2004).
Calls of active or inactive are those of the source.

How the values were obtained:
SRSF protein kinase 1 = SRSF protein kinase 1 (Homo sapiens, UniProt Q96SB4); assay type: functional;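 also: measured as one member of a kinome-wide kinase profiling panel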
[1] = target: Casein kinase I isoform delta (Homo sapiens, UniProt P48730); assay type: functional;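 also: measured as one member (CSNK1D) of a kinome panel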
[2] = target: Homeodomain-interacting protein kinase 4 (Homo sapiens, UniProt Q8NE63); assay type: functional
[3] = target: Dual specificity tyrosine-phosphorylation-regulated kinase 1A (Homo sapiens, UniProt Q13627); assay type: functional;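 also: measured against DYRK1A as one member of a broad kinome profiling panel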
[4] = target: Dual specificity protein kinase CLK4 (Homo sapiens, UniProt Q9HAZ1); assay type: functional
[5] = target: RAC-gamma serine/threonine-protein kinase (Homo sapiens, UniProt Q9Y243); assay type: functional
[6] = target: Vascular endothelial growth factor receptor 2 (Homo sapiens, UniProt P35968); assay type: functional
[7] = target: ALK tyrosine kinase receptor (Homo sapiens, UniProt Q9UM73); assay type: functional;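 also: ALK tested as one member of a kinase panel screen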
[8] = target: Non-receptor tyrosine-protein kinase TYK2 (Homo sapiens, UniProt P29597); assay type: functional
[9] = target: Serine/threonine-protein kinase PLK4 (Homo sapiens, UniProt O00444); assay type: functional;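 also: PLK4 measured as one member of a kinome-wide kinase profiling panel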
[10] = target: Hepatocyte growth factor receptor (Homo sapiens, UniProt P08581); assay type: functional;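 also: kinase panel profiling across the kinome, with MET as the panel member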
[11] = target: Macrophage colony-stimulating factor 1 receptor (Homo sapiens, UniProt P07333); assay type: functional;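 also: value comes from the Navigating the Kinome screening panel, CSF1R member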
[12] = target: Vascular endothelial growth factor receptor 1 (Homo sapiens, UniProt P17948); assay type: functional;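 also: measured within a kinome-wide profiling panel, FLT1 as the panel member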
[13] = target: Protein-tyrosine kinase 6 (Homo sapiens, UniProt Q13882); assay type: functional
[14] = target: RAC-alpha serine/threonine-protein kinase (Homo sapiens, UniProt P31749); assay type: functional;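 also: AKT1 affinity measured as one member of a kinome-wide kinase profiling panel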
[15] = target: Serine/threonine-protein kinase Chk1 (Homo sapiens, UniProt O14757); assay type: functional;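 also: measured as one member of a kinome-wide kinase profiling panel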
[16] = target: Fibroblast growth factor receptor 1 (Homo sapiens, UniProt P11362); assay type: functional
Insulin receptor = Insulin receptor (Homo sapiens, UniProt P06213); assay type: functional;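 also: insulin receptor kinase tested as one member of a kinome-wide kinase panel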
[17] = target: Proto-oncogene tyrosine-protein kinase receptor Ret (Homo sapiens, UniProt P07949); assay type: functional;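 also: measured within a kinome-wide profiling panel, RET as the panel member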
[18] = target: Serine/threonine-protein kinase pim-3 (Homo sapiens, UniProt Q86V86); assay type: functional;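 also: value obtained as one member of a broad kinase panel profiling effort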
[19] = target: Receptor-type tyrosine-protein kinase FLT3 (Homo sapiens, UniProt P36888); assay type: functional;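 also: FLT3 was tested as one member of a kinome-wide kinase panel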
[20] = target: Serine/threonine-protein kinase PLK3 (Homo sapiens, UniProt Q9H4B4); assay type: functional
[21] = target: Serine/threonine-protein kinase PLK1 (Homo sapiens, UniProt P53350); assay type: functional;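 also: PLK1 measured as one member of a kinome-wide profiling panel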
[22] = target: Serine/threonine-protein kinase pim-1 (Homo sapiens, UniProt P11309); assay type: functional
Aurora kinase A = Aurora kinase A (Homo sapiens, UniProt O14965); assay type: functional;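 also: value from the Navigating the Kinome kinase panel profiling, panel entry STK6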
[23] = target: Inhibitor of nuclear factor kappa-B kinase subunit beta (Homo sapiens, UniProt O14920); assay type: functional
[24] = target: Dual specificity tyrosine-phosphorylation-regulated kinase 1A (Rattus norvegicus, UniProt Q63470); assay type: biochemical, Homo sapiens
Orexin receptor type 2 [25] = target: T1, Orexin receptor type 2 (Homo sapiens, UniProt O43614); assay: Counterscreen assay for antagonists of the orexin 1 receptor (OX1R; HCRTR1): Homogeneous Time Resolved Fluorescence (HTRF)-based cell-based dose response assay for antagonists of the orexin 2 receptor (OX2R; HCRTR2), run by assay provider.; assay type: functional
[26] = target: T2, Orexin/Hypocretin receptor type 1 (Homo sapiens, UniProt O43613); assay: (§1) Fluorescence-based cell-based high throughput dose response assay for antagonists of the orexin 1 receptor (OX1R; HCRTR1). [Related pubchem assays (depositor defined):AID434989, AID435008, AID463079, AID485270, AID492963, AID492964, AID492965, AID493232, AID504717, AID504718]; assay type: functional
[27] = (§2) Counterscreen for antagonists of the orexin 1 receptor (OX1R; HCRTR1): Fluorescence-based cell-based high throughput dose response assay to identify antagonists of the parental CHO cell line. [Related pubchem assays (depositor defined):AID434989, AID435008, AID463079, AID485270, AID492963, AID492964, AID492965, AID493232, AID504699, AID504701]; assay type: functional
[28] = target: T2, Orexin/Hypocretin receptor type 1; assay: as §1, with “Homogeneous Time Resolved Fluorescence (HTRF)-based” for “Fluorescence-based”; assay type: functional
CHO-K1 = assay: as §2, with “Homogeneous time resolved fluorescence (HTRF)-based” for “Fluorescence-based”, “cell-based” for “cell-based high throughput”, “CHO-K1” for “CHO”; assay type: functional; conditions: Cricetulus griseus;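 also: potency for inhibition of ATP-stimulated IP1 production as antagonists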
Orexin receptor type 2 [29] = target: T1, Orexin receptor type 2; assay: Counterscreen assay for antagonists of the orexin 1 receptor (OX1R; HCRTR1): Fluorescence-based cell-based dose response assay for antagonists of the orexin 2 receptor (OX2R; HCRTR2), run by assay provider.; assay type: functional
[30] = target: Cell division cycle 7-related protein kinase (Homo sapiens, UniProt O00311); assay type: functional;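 also: value obtained from a kinome-wide kinase panel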
[31] = target: cAMP-dependent protein kinase catalytic subunit alpha (Homo sapiens, UniProt P17612); assay type: functional
[32] = target: MAP kinase-interacting serine/threonine-protein kinase 2 (Homo sapiens, UniProt Q9HBH9); assay type: functional
[33] = target: Mitogen-activated protein kinase kinase kinase kinase 4 (Homo sapiens, UniProt O95819); assay type: functional
[34] = target: Cyclin-dependent kinase 2 (Homo sapiens, UniProt P24941); assay type: functional;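 also: CDK2 measured as one member of a broad kinome profiling panel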
[35] = target: Glycogen synthase kinase-3 beta (Homo sapiens, UniProt P49841); assay type: functional;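 also: value comes from a broad kinome profiling panel, with GSK3B as the panel member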
[36] = target: Interleukin-1 receptor-associated kinase 4 (Homo sapiens, UniProt Q9NWZ3); assay type: functional
[37] = target: Homeodomain-interacting protein kinase 2 (Homo sapiens, UniProt Q9H2X6); assay type: functional;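 also: measured within a kinome-wide kinase profiling panel, HIPK2 being one panel member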
[38] = target: Protein disulfide-isomerase (Homo sapiens, UniProt P07237); assay: inhibition of PDI-driven insulin aggregation – biochemical, turbidity, absorbance, cherry-picked samples, dose response (AID 602350); assay type: functional

Serine/threonine-protein kinase pim-1, sequence (P11309 whole entry): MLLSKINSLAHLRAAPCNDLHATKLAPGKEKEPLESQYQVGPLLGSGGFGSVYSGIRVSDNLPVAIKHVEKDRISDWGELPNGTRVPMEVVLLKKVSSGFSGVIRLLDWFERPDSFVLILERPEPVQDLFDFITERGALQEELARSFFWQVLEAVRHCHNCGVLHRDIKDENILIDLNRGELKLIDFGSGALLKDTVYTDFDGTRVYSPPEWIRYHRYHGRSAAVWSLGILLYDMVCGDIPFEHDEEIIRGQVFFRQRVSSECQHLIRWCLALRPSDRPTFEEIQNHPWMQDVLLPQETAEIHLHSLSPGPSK
T2 sequence (O43613 whole entry): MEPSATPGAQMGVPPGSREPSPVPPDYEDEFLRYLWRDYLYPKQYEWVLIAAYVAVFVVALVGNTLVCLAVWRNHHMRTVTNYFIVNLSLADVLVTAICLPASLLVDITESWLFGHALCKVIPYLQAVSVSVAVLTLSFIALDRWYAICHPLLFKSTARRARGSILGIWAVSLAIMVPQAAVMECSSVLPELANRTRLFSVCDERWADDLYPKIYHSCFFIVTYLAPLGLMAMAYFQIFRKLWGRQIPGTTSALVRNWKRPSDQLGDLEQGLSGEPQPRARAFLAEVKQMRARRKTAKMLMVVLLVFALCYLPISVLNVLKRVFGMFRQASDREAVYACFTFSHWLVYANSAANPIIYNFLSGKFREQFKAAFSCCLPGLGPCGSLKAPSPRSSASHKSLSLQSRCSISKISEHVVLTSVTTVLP
T1 sequence (O43614 whole entry): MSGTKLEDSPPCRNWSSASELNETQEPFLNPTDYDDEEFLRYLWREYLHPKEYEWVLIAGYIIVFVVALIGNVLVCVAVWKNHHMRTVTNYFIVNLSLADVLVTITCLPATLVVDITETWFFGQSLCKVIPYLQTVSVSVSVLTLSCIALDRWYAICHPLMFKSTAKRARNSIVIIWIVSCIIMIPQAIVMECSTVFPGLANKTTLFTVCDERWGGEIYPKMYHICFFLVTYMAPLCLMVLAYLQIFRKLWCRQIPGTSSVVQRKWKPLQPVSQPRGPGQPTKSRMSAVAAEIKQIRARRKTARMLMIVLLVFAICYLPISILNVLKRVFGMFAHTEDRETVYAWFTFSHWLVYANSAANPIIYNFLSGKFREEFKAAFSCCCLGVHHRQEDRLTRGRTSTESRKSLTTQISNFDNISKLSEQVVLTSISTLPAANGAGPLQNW
Dual specificity protein kinase CLK4, sequence (Q9HAZ1 whole entry): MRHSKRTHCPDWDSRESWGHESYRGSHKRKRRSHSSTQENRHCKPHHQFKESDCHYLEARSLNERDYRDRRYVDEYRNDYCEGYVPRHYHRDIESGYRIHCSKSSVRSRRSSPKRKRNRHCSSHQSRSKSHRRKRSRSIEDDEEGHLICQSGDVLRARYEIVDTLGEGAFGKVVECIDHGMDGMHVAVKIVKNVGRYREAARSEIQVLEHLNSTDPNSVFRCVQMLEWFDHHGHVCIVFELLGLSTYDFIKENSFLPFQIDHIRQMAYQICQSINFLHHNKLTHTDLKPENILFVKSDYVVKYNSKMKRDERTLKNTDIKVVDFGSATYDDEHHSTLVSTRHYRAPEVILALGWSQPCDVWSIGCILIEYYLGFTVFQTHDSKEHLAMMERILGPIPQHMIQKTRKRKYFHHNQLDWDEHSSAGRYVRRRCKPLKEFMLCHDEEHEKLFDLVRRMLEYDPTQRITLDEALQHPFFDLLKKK
Glycogen synthase kinase-3 beta, sequence (P49841 whole entry): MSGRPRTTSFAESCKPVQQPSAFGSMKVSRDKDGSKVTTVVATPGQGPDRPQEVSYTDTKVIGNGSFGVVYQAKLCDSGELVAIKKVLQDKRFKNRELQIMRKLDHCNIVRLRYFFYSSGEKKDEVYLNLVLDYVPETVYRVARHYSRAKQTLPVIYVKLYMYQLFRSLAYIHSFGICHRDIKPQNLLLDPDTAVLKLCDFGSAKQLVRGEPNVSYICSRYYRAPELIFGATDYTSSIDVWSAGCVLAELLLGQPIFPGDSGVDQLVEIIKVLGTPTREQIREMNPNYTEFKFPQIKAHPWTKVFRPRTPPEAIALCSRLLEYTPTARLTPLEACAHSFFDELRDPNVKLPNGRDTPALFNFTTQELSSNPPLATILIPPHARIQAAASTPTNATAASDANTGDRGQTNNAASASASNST
Fibroblast growth factor receptor 1, sequence (P11362 whole entry): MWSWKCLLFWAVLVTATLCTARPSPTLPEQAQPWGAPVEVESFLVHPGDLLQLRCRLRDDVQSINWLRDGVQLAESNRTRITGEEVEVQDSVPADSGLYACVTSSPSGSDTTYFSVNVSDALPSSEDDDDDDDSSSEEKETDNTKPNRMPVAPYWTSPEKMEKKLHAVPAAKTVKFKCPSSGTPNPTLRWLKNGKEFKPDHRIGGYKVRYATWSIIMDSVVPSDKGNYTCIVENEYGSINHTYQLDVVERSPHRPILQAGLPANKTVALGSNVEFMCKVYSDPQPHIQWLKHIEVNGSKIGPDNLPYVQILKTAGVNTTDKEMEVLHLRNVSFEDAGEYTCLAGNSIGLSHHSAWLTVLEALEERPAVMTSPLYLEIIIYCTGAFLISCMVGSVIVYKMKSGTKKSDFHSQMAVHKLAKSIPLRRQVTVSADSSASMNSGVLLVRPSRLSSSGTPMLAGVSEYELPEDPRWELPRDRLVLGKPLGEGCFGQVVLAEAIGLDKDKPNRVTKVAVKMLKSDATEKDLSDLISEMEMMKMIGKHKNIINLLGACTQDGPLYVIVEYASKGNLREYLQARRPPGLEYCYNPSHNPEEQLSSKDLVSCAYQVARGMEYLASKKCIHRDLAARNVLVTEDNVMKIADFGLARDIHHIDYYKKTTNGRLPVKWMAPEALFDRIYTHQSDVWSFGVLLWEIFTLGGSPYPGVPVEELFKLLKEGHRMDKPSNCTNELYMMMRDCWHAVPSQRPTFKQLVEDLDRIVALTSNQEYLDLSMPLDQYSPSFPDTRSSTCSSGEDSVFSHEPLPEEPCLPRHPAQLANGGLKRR
Serine/threonine-protein kinase PLK3, sequence (Q9H4B4 whole entry): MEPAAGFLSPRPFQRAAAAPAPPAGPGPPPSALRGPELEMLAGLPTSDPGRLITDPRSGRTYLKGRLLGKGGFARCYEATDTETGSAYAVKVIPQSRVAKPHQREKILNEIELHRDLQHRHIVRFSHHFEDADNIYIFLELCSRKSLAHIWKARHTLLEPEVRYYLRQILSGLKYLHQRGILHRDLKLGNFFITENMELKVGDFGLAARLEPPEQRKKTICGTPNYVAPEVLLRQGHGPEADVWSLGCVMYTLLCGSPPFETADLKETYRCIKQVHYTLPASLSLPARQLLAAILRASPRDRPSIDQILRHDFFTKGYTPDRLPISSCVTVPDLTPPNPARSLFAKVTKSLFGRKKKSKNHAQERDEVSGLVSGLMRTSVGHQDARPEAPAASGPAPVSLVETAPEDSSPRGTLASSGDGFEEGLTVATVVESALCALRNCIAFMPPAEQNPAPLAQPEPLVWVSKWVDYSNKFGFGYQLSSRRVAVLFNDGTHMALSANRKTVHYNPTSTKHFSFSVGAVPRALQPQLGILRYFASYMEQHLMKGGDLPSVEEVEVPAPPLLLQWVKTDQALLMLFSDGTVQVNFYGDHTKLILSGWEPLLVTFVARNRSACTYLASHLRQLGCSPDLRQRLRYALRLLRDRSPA
Interleukin-1 receptor-associated kinase 4, sequence (Q9NWZ3 whole entry): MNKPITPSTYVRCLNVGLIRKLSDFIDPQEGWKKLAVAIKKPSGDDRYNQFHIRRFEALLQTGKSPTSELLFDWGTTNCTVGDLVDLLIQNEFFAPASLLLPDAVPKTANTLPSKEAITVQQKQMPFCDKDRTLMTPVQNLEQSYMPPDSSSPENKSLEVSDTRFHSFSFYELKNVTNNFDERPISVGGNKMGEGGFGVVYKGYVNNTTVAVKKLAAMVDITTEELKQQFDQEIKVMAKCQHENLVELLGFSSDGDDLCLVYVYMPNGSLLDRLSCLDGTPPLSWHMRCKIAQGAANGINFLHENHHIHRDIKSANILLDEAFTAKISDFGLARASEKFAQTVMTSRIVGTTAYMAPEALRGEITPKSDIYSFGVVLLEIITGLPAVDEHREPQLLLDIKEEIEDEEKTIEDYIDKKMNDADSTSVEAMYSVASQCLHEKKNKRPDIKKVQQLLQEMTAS
Cell division cycle 7-related protein kinase, sequence (O00311 whole entry): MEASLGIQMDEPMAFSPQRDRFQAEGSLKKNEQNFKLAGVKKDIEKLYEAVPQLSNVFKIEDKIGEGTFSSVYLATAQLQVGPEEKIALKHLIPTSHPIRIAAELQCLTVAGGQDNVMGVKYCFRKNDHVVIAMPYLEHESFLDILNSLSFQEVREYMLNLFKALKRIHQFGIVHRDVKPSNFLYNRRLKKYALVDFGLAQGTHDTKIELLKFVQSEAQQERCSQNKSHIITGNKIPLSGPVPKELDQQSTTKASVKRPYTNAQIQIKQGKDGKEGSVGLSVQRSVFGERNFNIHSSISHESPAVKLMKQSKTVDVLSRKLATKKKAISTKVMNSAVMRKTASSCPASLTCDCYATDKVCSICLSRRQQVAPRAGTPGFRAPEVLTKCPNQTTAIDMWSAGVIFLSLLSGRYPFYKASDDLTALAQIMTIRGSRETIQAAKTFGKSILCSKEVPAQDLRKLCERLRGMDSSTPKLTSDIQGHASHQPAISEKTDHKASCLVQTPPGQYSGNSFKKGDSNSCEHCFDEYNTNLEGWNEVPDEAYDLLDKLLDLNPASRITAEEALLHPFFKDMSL

SMILES: CC(C)n1cnc2c(NCc3ccccc3)nc(NCCO)nc21
- Ki (SRSF protein kinase 1): 6.31 µM (active)
- Ki [1]: 2.51 µM (active)
- Ki [2]: 2 µM (active)
- Ki [3]: 3.16 µM (active)
- Ki [4]: 2.51 µM (active)

SMILES: Nc1nnc2ccc(-c3ccccc3)cn12
- Ki [5]: > 100 µM (inactive)
- Ki [6]: 15.8 µM (active)
- Ki [7]: 12.6 µM (active)
- Ki [8]: > 20 µM (inactive)
- Ki [9]: > 39.8 µM (inactive)
- Ki [10]: > 31.6 µM (inactive)
- Ki [11]: > 25.1 µM (inactive)
- Ki [12]: 2 µM (active)
- Ki [13]: > 25.1 µM (inactive)
- Ki [14]: > 79.4 µM (inactive)
- Ki [15]: > 79.4 µM (inactive)
- Ki [16]: 10 µM (active)
- Ki (Insulin receptor): > 50.1 µM (inactive)
- Ki [17]: 10 µM (active)
- Ki [18]: 12.6 µM (active)
- Ki [19]: 5.01 µM (active)
- Ki [20]: > 79.4 µM (inactive)
- Ki [21]: > 79.4 µM (inactive)
- Ki [22]: 10 µM (active)

SMILES: c1ccc2c(c1)[nH]c1cnccc12 [NORHARMANE]
- Ki (Aurora kinase A): 15.8 µM (active)
- Ki [23]: 7.94 µM (active)
- AC50 [24]: 8.75 µM (active)
- Ki [22]: 6.31 µM (active)

SMILES: Cc1ccc(NC2=NC(=O)/C(=C/c3cccn3C)S2)cc1C
- IC50 (Orexin receptor type 2 [25]): > 50 µM (inactive)
- IC50 [26]: 2.24 µM (active)
- IC50 [27]: > 49.7 µM (inactive)
- IC50 [28]: 2.2 µM (active)
- IC50 (CHO-K1): > 66.2 µM (inactive)
- IC50 (Orexin receptor type 2 [29]): > 88.8 µM (inactive)

SMILES: Cc1sc2[nH]c(=O)n3nc(-c4ccncc4)nc3c2c1C
- Ki [30]: 0.02 µM (active)
- Ki [31]: > 7.94 µM (inactive)
- Ki [32]: > 10 µM (inactive)
- Ki [33]: 5.01 µM (active)
- Ki [34]: > 7.94 µM (inactive)
- Ki [4]: 1.26 µM (active)
- Ki [35]: 0.631 µM (active)
- Ki [36]: > 10 µM (inactive)
- Ki [37]: 2 µM (active)
- Ki [22]: 0.794 µM (active)

SMILES: CC(C)Sc1nnc([C@H](Cc2c[nH]c3ccccc23)NC(=O)OC(C)(C)C)o1
- AC50 [38]: 19.5 µM (active)
